{"source": "patent US20100104622A1", "about": "“Ligand Targeted Nanocapsules for the delivery of RNAi and other Agents” (priority 2008, published 2010)", "origin": "cited, not measured here", "tested_on": "advanced stage melanoma", "conditions": "melanoma patients"}
{"smiles": "COc1cccc2c1C(=O)c1c(O)c3c(c(O)c1C2=O)C[C@@](O)(C(=O)CO)C[C@@H]3O[C@H]1C[C@H](N)[C@H](O)[C@H](C)O1", "note": "[Doxorubicin]", "values": [{"measurement": "efficacy in advanced stage melanoma", "result": "essentially ineffective"}]}
